# Experimental data reported in US4539208A, “Combination of thienamycin-type antibiotics with dipeptidase inhibitors” (Merck & Co., Inc., priority 1981, dated 1985).
# Biological target: T1, renal dipeptidase (E.C.3.4.13.11) (Sus scrofa, UniProt P22412)
# T1 construct: solubilized preparation of dipeptidase isolated from hog kidneys; from tissue; host or cells: hog (pig) kidney
# T1 sequence (P22412 17-409): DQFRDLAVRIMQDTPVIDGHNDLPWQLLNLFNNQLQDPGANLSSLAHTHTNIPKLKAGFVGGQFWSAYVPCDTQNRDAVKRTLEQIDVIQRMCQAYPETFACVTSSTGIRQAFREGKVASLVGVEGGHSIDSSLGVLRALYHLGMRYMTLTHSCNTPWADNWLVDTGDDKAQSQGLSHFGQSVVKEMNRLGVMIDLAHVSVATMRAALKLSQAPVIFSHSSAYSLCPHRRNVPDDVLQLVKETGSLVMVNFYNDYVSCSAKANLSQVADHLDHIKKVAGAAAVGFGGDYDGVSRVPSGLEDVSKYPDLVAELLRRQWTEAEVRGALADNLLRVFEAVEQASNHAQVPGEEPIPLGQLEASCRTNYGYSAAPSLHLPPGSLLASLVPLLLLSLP
# Experiment: Inhibition of GDP (glycyldehydrophenylalanine) hydrolysis by solubilized renal dipeptidase
# Format: biochemical, hog (pig) kidney
# Details: not given
# Method: This measured the ability of compounds to inhibit hydrolysis of glycyldehydrophenylalanine (GDP) by a solubilized preparation of dipeptidase isolated from hog kidneys. The procedure is as follows: to a 1 ml. system containing 50 mM "MOPS" (3-(N-morpholino)propanesulfonic acid) buffer, pH 7.1, is added 5 μg of lyophilized enzyme, and the test compound at a final concentration of 0.1 mM. After a five minute incubation at 37° C., GDP is added to a final concentration of 0.05 mM. Incubation is continued for 10 minutes, at 37° C. and hydrolysis of GDP is measured by the change in optical density with time at 275 nm. Inhibition of the enzyme is gauged by comparison to a standard run containing no inhibitor and is expressed as the inhibitor binding constant, Ki.
# A 1 ml. system of 50 mM "MOPS" buffer, pH 7.1, is used. To this is added 5 μg of the pig renal enzyme and an amount of the test compound to bring its final concentration to 0.1 mM. After a five minute incubation at 37° C., an amount of GDP is added to bring its final concentration to 0.05 mM. The system is again incubated for 10 minutes, at 37° C. Hydrolysis of GDP is measured by its change in optical density with time at 275 nm. Inhibition of the enzyme is gauged by comparison to a standard run containing no inhibitor and is presented as percent inhibition.
row,SMILES,Ki [nM]
1,CC1(C)CC1C(=O)N/C(=C\CCC(=O)O)C(=O)O (stereo not shown) [Compound 51],145
2,CC1(C)CC1C(=O)N/C(=C\CC1CCCO1)C(=O)O (stereo not shown) [Compound 65],390
3,CN(C)C(=N)NCCCCC/C=C(\NC(=O)C1CC1(C)C)C(=O)O (stereo not shown) [Compound 16],890
4,CC1(C)CC1C(=O)N/C(=C\Cc1ccccc1)C(=O)O (stereo not shown) [Compound 59],440
5,CC(C)/C=C(\NC(=O)C1CC1(C)C)C(=O)O (stereo not shown) [Compound 41],1600

# The next lines start with the values.
row,Ki [nM],SMILES
1,59,CCCCC/C=C(\NC(=O)C1CC1(Cl)Cl)C(=O)O (stereo not shown) [Compound 12]
2,149,CCCCCC/C=C(\NC(=O)C1CC1(C)C)C(=O)O (stereo not shown) [Compound 56]
3,20000,"C/C=C(\NC(=O)CCCCCl)C(=O)O [Compound 36, Z-2-(5-chlorovaleramido)-2-butenoic acid]"
4,39000,"C/C=C(\NC(=O)CCCCC)C(=O)O [Compound 28, Z-2-hexanamido-2-butenoic acid]"
5,9000,"C/C=C(\NC(=O)C1CC1)C(=O)O [Compound 10, Z-2-cyclopropylcarboxamido-2-butenoic acid]"
6,92,CCCCCCC/C=C(\NC(=O)C1CC1(C)C)C(=O)O (stereo not shown) [Compound 57]

# Same assay, conditions: 10^-4 M inhibitor; GDP 0.05 mM; pH 7.1; 37° C.
SMILES,inhibition at 100 µM [%],% Inhibition at 10^-4 M [%]
CC1(C)CC1C(=O)N/C(=C\CCC(=O)O)C(=O)O (stereo not shown) [Compound 51],98,
C/C=C(\NC(=O)CCC1CCCCC1)C(=O)O [Compound 27],54,
CC1(C)CC1C(=O)N/C(=C\CCS(C)(=O)=O)C(=O)O (stereo not shown) [Compound 55],96,
O=C(O)CC/C=C(\NC(=O)C1CC1)C(=O)O [Compound 33],90,
CC(C)C/C=C(\NC(=O)C1CC1(C)C)C(=O)O (stereo not shown) [Compound 48],97,
CC1(C)CC1C(=O)N/C(=C\c1ccccc1)C(=O)O (stereo not shown) [Compound 46],100,
CC1(C)CC1C(=O)N/C(=C\Cc1ccccc1)C(=O)O (stereo not shown) [Compound 59],98,
C/C=C(\NC(=O)CCC1CCCC1)C(=O)O [Compound 26],56,
CC1(C)CC1C(=O)N/C(=C\CCc1ccccc1)C(=O)O (stereo not shown) [Compound 53],96,
CC1(C)CC1C(=O)N/C(=C\CCCC(=O)O)C(=O)O (racemic) [Compound 64],99,
C/C=C(\NC(=O)C1CCCC1)C(=O)O [Compound 24],59,
CC1(C)CC1C(=O)N/C(=C\CC1CCCCC1)C(=O)O (stereo not shown) [Compound 52],100,
CC/C=C(\NC(=O)C1CC1(C)C)C(=O)O (stereo not shown) [Compound 45],98,
CC(C)CC/C=C(\NC(=O)C1CC1(C)C)C(=O)O (stereo not shown) [Compound 63],98,
CCCCCCCCCC/C=C(\NC(=O)C1CC1(C)C)C(=O)O (stereo not shown) [Compound 58],96,
C/C=C(\NC(=O)C1CCC1)C(=O)O [Compound 8],80,
C/C=C(\NC(=O)CCCC1CCCCC1)C(=O)O [Compound 21],68,
COCC/C=C(\NC(=O)C1CC1(C)C)C(=O)O (stereo not shown) [Compound 61],98,
CCC/C=C(\NC(=O)C1CC1(C)C)C(=O)O (stereo not shown) [Compound 47],98,
CC(C)/C=C(\NC(=O)C1CC1(C)C)C(=O)O (stereo not shown) [Compound 41],96,
CC/C=C(\NC(=O)C1CC1(C)C)C(=O)O (stereo not shown) [Compound 1],,98
CSCC/C=C(\NC(=O)C1CC1(C)C)C(=O)O (stereo not shown) [Compound 54],99,

# Now from value to compound:
inhibition at 100 µM [%],% Inhibition at 10^-4 M [%],SMILES
49,,C/C=C(\NC(=O)CCCCCC)C(=O)O [Compound 29]
83,,C/C=C(\NC(=O)CC1CCC1)C(=O)O [Compound 9]
91,,"C/C=C(\NC(=O)CC(C)C)C(=O)O [Compound 7, Z-2-isovaleramido-2-butenoic acid]"
72,,"C/C=C(\NC(=O)CCCCCCC)C(=O)O [Compound 19, Z-2-octanamido-2-butenoic acid]"
75,,"C/C=C(\NC(=O)CC(C)(C)C)C(=O)O [Compound 18, Z-2-t-butylacetamido-2-butenoic acid]"
100,,"C/C=C(\NC(=O)C1CC1(C)C)C(=O)O (single isomer, unassigned; (+)) [Compound 2a, (+)-Z-2-(2,2-dimethylcyclopropanecarboxamido)-2-butenoic acid]"
95,,"CCCCC/C=C(\NC(=O)CC(C)C)C(=O)O [Compound 39, Z-2-isovaleramido-2-octenoic acid]"
81,,C/C=C(\NC(=O)CC(C)CC(C)(C)C)C(=O)O (stereo not shown) [Compound 5]
70,,C/C=C(\NC(=O)CCCCCBr)C(=O)O [Compound 35]
100,,C/C=C(\NC(=O)C1CC1(C)CC)C(=O)O (stereo not shown) [Compound 40]
98,,CCCCCC/C=C(\NC(=O)C1CC1(C)C)C(=O)O (stereo not shown) [Compound 56]
90,,C/C=C(\NC(=O)C1CC1C(C)(C)C)C(=O)O (stereo not shown) [Compound 38]
64,,"C/C=C(\NC(=O)CCCCCl)C(=O)O [Compound 36, Z-2-(5-chlorovaleramido)-2-butenoic acid]"
95,,C/C=C(\NC(=O)C1CC1(C)C(C)C)C(=O)O (stereo not shown) [Compound 44]
88,,C/C=C(\NC(=O)CC(C)CCOC)C(=O)O (stereo not shown) [Compound 34]
69,,"C/C=C(\NC(=O)CCC)C(=O)O [Compound 20, Z-2-butyramido-2-butenoic acid]"
64,,"C/C=C(\NC(=O)CCCC)C(=O)O [Compound 23, Z-2-valeramido-2-butenoic acid]"
92,,C/C=C(\NC(=O)C1CC1C)C(=O)O (stereo not shown) [Compound 3]

inhibition at 100 µM [%],% Inhibition at 10^-4 M [%],SMILES
100,,CCCC/C=C(\NC(=O)C1CC1(C)C)C(=O)O (stereo not shown) [Compound 49]
54,,"C/C=C(\NC(=O)CCCCC)C(=O)O [Compound 28, Z-2-hexanamido-2-butenoic acid]"
100,,CCCCC/C=C(\NC(=O)C1CC1(C)C)C(=O)O (stereo not shown) [Compound 50]
82,,C/C=C(\NC(=O)CC(C)CC)C(=O)O (stereo not shown) [Compound 11]
87,,CC/C=C(\NC(=O)CC(C)C)C(=O)O [Compound 4]
72,,C/C=C(\NC(=O)CCCc1ccccc1)C(=O)O [Compound 37]
33,,"C/C=C(\NC(=O)C(CC)CCCC)C(=O)O (stereo not shown) [Compound 30, Z-2-(2-Ethylhexanamido)-2-butenoic acid]"
57,,"C/C=C(\NC(=O)CCCCC(C)C)C(=O)O [Compound 25, Z-2-(6-methylheptanamido)-2-butenoic acid]"
97,,"C/C=C(\NC(=O)C1CC1)C(=O)O [Compound 10, Z-2-cyclopropylcarboxamido-2-butenoic acid]"
98,,C/C=C(\NC(=O)C1CC1(CC)CC)C(=O)O (stereo not shown) [Compound 42]
64,,C/C=C(\NC(=O)CC1CC1)C(=O)O [Compound 22]
96,,C/C=C(\NC(=O)C1CC1CC)C(=O)O (stereo not shown) [Compound 43]
31,,C/C=C(\NC(=O)C(C)C)C(=O)O [Compound 32]
98,,"C/C=C(\NC(=O)C1CC1(C)C)C(=O)O (racemic) [Compound 2, Z-2-(2,2-dimethylcyclopropanecarboxamido)-2-butenoic acid]"
99,,CCCCCCC/C=C(\NC(=O)C1CC1(C)C)C(=O)O (stereo not shown) [Compound 57]
13,,"C/C=C(\NC(=O)C(CCC)CCC)C(=O)O [Compound 31, Z-2-di-n-propylacetamido-2-butenoic acid]"
83,,C/C=C(\NC(=O)C1C(C)C1C)C(=O)O (stereo not shown) [Compound 6]

# Same assay, conditions: racemate resolved; dextrorotatory isomer has S-configuration
row,SMILES,activity of resolved isomers
1,"CCCCC/C=C(\NC(=O)C1CC1(C)C)C(=O)O (racemic) [Z-2-(2,2-dimethylcyclopropanecarboxamido)-2-octenoic acid]",The activity resides in the dextrorotatory isomer

# Test system: Staphalococcus aureus
# Experiment: Systemic efficacy of thienamycin with co-administered inhibitor, Staphylococcus aureus infection in mouse
# Format: in vivo
# Details: coadministered with thienamycin
row,SMILES,enhancement of systemic antibacterial activity of thienamycin
1,"C/C=C(\NC(=O)CC(C)C)C(=O)O [Compound 7, Z-2-isovaleramido-2-butenoic acid]",enhanced approximately three-fold
